Reference: patent US20020015990A1, “LACTOBACILLUS BIFIDUS GROWTH PROMOTING COMPOSITION AND USE THEREOF” (priority 1996, published 2002)

What was measured:
[1] = system: Bifidobacterium adolescentis BB-102; experiment: Consumption speed-accelerating effect (increase in turbidity after 8 hours, test medium / glucose basic medium); assay type: cell-based; conditions: for Consumption speed-accelerating effect, Bifidobacterium adolescentis: Table 1, single oligosaccharide in place of glucose; for Consumption speed-accelerating effect, B. adolescentis: Table 2, raffinose + lactulose, total 2.0% in place of 2.0% glucose
Description: (§1) Bifidobacterium bifidum BB-225, Bifidobacterium adolescentis BB-102, Bifidobacterium breve BB-308, Bifidobacterium longum BB-536. The basic culture medium and pre-cultivation solution were prepared as in above-mentioned Preliminary Test 1. The test culture medium was prepared using the following 7 types of oligosaccharides, which are widely used as Lactobacillus bifidus growth factor, in place of glucose: Raffinose (Nihon […] Seito Co., Ltd.), lactulose (Morinaga Milk Industry Co., Ltd.), galacto-oligosaccharide (Nisshin Seito Co., Ltd.), lactosucrose (Hayashibara Shoji Co., Ltd.), fructo-oligosaccharide (Meiji Seika Co., Ltd.), isomalto-oligosaccharide (Hayashibara Shoji Co., Ltd.), and xylo-oligosaccharide (Santori Co., Ltd.). Cultivation was performed as in above-mentioned Preliminary Test 1 and the sugar consumption speed was calculated by the following formula and comparative studies were performed, using the increment increase in turbidity of each medium up to 8 hours later as the index. Consumption speed-accelerating effect (fold)=(increase in turbidity after 8 hours in test medium)/(increase in turbidity after 8 hours in basic medium) The basic culture medium and pre-cultivation solution were prepared as for above-mentioned Preliminary Test 1. The test culture medium was prepared changing the total amount of each of the desired raffinose and oligosaccharide to 2.0% in place of the 2.0% glucose in the basic medium and the addition ratio to 13 steps. The oligosaccharides that were used were the same as in above-mentioned Preliminary Test 2, and cultivation, determination of turbidity and assessment of the sugar consumption speed-accelerating activity were performed by the same methods as in above-mentioned Preliminary Test 2.

[2] = system: Bifidobacterium breve BB-308; experiment: as above; assay type: cell-based; conditions: for Consumption speed-accelerating effect, Bifidobacterium breve: Table 1, single oligosaccharide in place of glucose; for Consumption speed-accelerating effect, B breve: Table 2, raffinose + lactulose, total 2.0% in place of 2.0% glucose
Description: as §1

[3] = system: Bifidobacterium longum BB-536; experiment: as above; assay type: cell-based; conditions: for Consumption speed-accelerating effect, Bifidobacterium longum: Table 1, single oligosaccharide in place of glucose; for Consumption speed-accelerating effect, B longum: Table 2, raffinose + lactulose, total 2.0% in place of 2.0% glucose
Description: as §1

[4] = system: Bifidobacterium bifidum BB-225; experiment: as above; assay type: cell-based; conditions: for Consumption speed-accelerating effect, Bifidobacterium bifidum: Table 1, single oligosaccharide in place of glucose; for Consumption speed-accelerating effect, B. bifidum: Table 2, raffinose + lactulose, total 2.0% in place of 2.0% glucose
Description: as §1

[5] = system: 4 species of Lactobacillus bifidus; experiment: Mean consumption speed-accelerating activity of 4 species of test bacteria; assay type: cell-based, Bifidobacterium adolescentis, breve, bifidum, longum; conditions: 8 hours; for Mean consumption speed-accelerating activity of 4 species of test bacteria: Table 3, raffinose + other oligosaccharide; for Mean consumption speed-accelerating activity of 4 species of test bacteria / Mean consumption speed-accelerating activity of 4 species: total 2.0% in place of 2.0% glucose; for Mean consumption speed-accelerating activity of 4 species: Table 2, raffinose + lactulose
Description: Bifidobacterium bifidum BB-225, Bifidobacterium adolescentis BB-102, Bifidobacterium breve BB-308, Bifidobacterium longum BB-536. Cultivation was performed as in above-mentioned Preliminary Test 1 and the sugar consumption speed was calculated by the following formula and comparative studies were performed, using the increment increase in turbidity of each medium up to 8 hours later as the index. Consumption speed-accelerating effect (fold)=(increase in turbidity after 8 hours in test medium)/(increase in turbidity after 8 hours in basic medium) The same four species of Lactobacillus bifidus as used in above-mentioned Preliminary Test 2 were employed. The basic culture medium and pre-cultivation solution were prepared as for above-mentioned Preliminary Test 1. The test culture medium was prepared changing the total amount of each of the desired raffinose and oligosaccharide to 2.0% in place of the 2.0% glucose in the basic medium and the addition ratio to 13 steps. The oligosaccharides that were used were the same as in above-mentioned Preliminary Test 2, and cultivation, determination of turbidity and assessment of the sugar consumption speed-accelerating activity were performed by the same methods as in above-mentioned Preliminary Test 2. The consumption speed-accelerating effect of each of the 4 strains of Lactobaccilus bifidus tested, as well as the average consumption speed-accelerating effect of the 4 species tested, in a culture medium that used a combination of raffinose and lactulose are shown in Table 2 and the average consumption speed-accelerating effect in each of the 4 species of bacteria tested with various test media other than medium using raffinose and lactulose are shown in Table 3.

[6] = system: Bifidobacterium longum BB-536; experiment: Preliminary Test 1: change over time in medium turbidity (growth curve) with different sugar sources; assay type: cell-based; conditions: sugar in place of glucose in basic medium; up to 24 hours of cultivation at 37° C.; turbidity 660 nm
Description: This test was performed in order to investigate changes over time in medium turbidity and determine if measurement of turbidity after a certain cultivation time is valid for assessing the speed with which the Lactobacilluls bifidus consumes sugar:
Bifidobacterium longum BB-536, which is a microorganism belonging to the genus Bifidobacterium, derived from humans that was separated and identified from the feces of healthy adults by conventional methods (Tomonari Mitsuoka, ed., “Research of Bifidus Bacteria,” pages 40˜60, Zaidanhojin Nihon Bifizusukin Senta (Japan Bifidus Bacteria Center), 1994) was used in this test. Furthermore, this strain is stored by the inventors and is available for any person as needed. […]
First, 0.5 ml of each of the above-mentioned cultivation solutions of Lactobacillus bifidus were inoculated in every 2 of the above-mentioned test media and turbidity was immediately measured with a quartz cell at a wavelength of 660 nm and light path length of 10 mm using a spectrophotometer (Hitachi Seisakusho Co., Ltd.). […] Turbidity was measured under the same conditions as previously described at 2-hour intervals and the mean turbidity of the 2 test tubes was calculated as the determination.
Moreover, basic medium containing glucose was simultaneously used as the control and turbidity was similarly determined. […]

| Compound | Consumption speed-accelerating effect, Bifidobacterium adolescentis [1] [fold] | Consumption speed-accelerating effect, Bifidobacterium breve [2] [fold] | Consumption speed-accelerating effect, Bifidobacterium longum [3] [fold] | Consumption speed-accelerating effect, Bifidobacterium bifidum [4] [fold] | Mean consumption speed-accelerating activity of 4 species of test bacteria [5] | sugar consumption speed compared with glucose medium (FIG. 1) [6] | Consumption speed-accelerating effect, B. adolescentis [1] | Consumption speed-accelerating effect, B breve [2] | Consumption speed-accelerating effect, B longum [3] | Consumption speed-accelerating effect, B. bifidum [4] | consumption speed-accelerating activity by Lactobacillus bifidus (in words) ([5]; 4 species, compared with glucose medium) | Mean consumption speed-accelerating activity of 4 species [5] | availability for Bifidobacterium bifidus (in words) ([4]; single oligosaccharide in place of glucose) |
| --- | --- | --- | --- | --- | --- | --- | --- | --- | --- | --- | --- | --- | --- |
| OC[C@H]1O[C@@H](O[C@H]2[C@H](O)[C@@H](O)[C@@H](O[C@]3(CO)O[C@H](CO)[C@@H](O)[C@@H]3O)O[C@@H]2CO)[C@H](O)[C@@H](O)[C@H]1O [Lacto-sucrose, lactosucrose] | 0.83 | 0.87 | 0.78 | 0.03 | (0.63) fold | – | – | – | – | – | – | – | – |
| OC[C@H]1O[C@@H](O[C@@H]2[C@@H](CO)OC(O)(CO)[C@H]2O)[C@H](O)[C@@H](O)[C@H]1O (mixture of isomers) [Lactulose] | 0.97 | 1.08 | 0.92 | 0.96 | – | approximately the same sugar consumption speed as the medium that used glucose | (0.97) fold | (1.08) fold | (0.92) fold | (0.96) fold | relatively strong consumption speed-accelerating activity | (0.98) fold | – |
| OC[C@H]1O[C@H](OC[C@H]2O[C@H](O[C@]3(CO)O[C@H](CO)[C@@H](O)[C@@H]3O)[C@H](O)[C@@H](O)[C@@H]2O)[C@H](O)[C@@H](O)[C@H]1O [Raffinose] | 1.02 | 1.15 | 1.09 | 0.02 | (0.82) fold | higher consumption speed than the medium that used glucose | (1.02) fold | (1.15) fold | (1.09) fold | (0.02) fold | – | (0.82) fold | did not show availability |
